# “Also recorded” adds a separate entry of the source.
# Columns and labels:
# PDE4 Cat = assay: IMAP PDE activity assay (Scottish Biomedical); format: biochemical
# Description: (§1) Studies were conducted at Scottish Biomedical (Scotland, UK)
# (§2) Activity against recombinant PDEs (Table 1) was evaluated using the IMAP technology, which is based on high affinity binding of phosphate by immobilized metal coordination complexes on nanoparticles. The binding reagent complexes with phosphate groups on nucleotide monophosphate generated from cyclic nucleotides (cAMP/cGMP) through PDE activity. With fluorescence polarization detection, binding causes a change in the rate of the molecular motion of the phosphate bearing molecule, and results in an increase in the fluorescence polarization value observed for the fluorescent label attached to the substrate.
# PDE1A3 (cAMP) = molecular target: T1, PDE1A3 (cAMP) (Homo sapiens, UniProt P54750); assay: IMAP PDE activity assay (Scottish Biomedical); format: biochemical; settings: recombinant PDE1A3 (cAMP)
# T1 construct: Scottish Biomedical (contract laboratory)
# Description: as §1, §2
# PDE7A1 = molecular target: T2, PDE7A1 (Homo sapiens, UniProt Q13946); assay: IMAP PDE activity assay (Scottish Biomedical); format: biochemical
# T2 construct: Scottish Biomedical (contract laboratory)
# Description: as §1, §2
# PDE8A1 = molecular target: T3, PDE8A1 (Homo sapiens, UniProt O60658); assay: IMAP PDE activity assay (Scottish Biomedical); format: biochemical; settings: NI, no inhibition noted at concentrations tested (up to 10 µM at Cerep and up to 100 µM at Scottish Biomedical)
# T3 construct: Scottish Biomedical (contract laboratory)
# Description: as §1, §2
# PDE2A3 = molecular target: T4, PDE2A3 (Homo sapiens, UniProt O00408); assay: IMAP PDE activity assay (Scottish Biomedical); format: biochemical; settings: recombinant PDE2A3
# T4 construct: Scottish Biomedical (contract laboratory)
# Description: as §1, §2
# PDE10A1 (cAMP) = PDE10A1 (cAMP) (Homo sapiens, UniProt Q9Y233); assay: IMAP PDE activity assay (Scottish Biomedical); format: biochemical; settings: * Extrapolated value
# Description: as §1, §2
# PDE11A1 (cAMP) = PDE11A1 (cAMP) (Homo sapiens, UniProt Q9HCR9); assay: IMAP PDE activity assay (Scottish Biomedical); format: biochemical; settings: * Extrapolated value
# Description: as §1, §2
# PDE9A2 = PDE9A2 (Homo sapiens, UniProt O76083); assay: IMAP PDE activity assay (Scottish Biomedical); format: biochemical; settings: * Extrapolated value
# Description: as §1, §2
# PDE3 Cat = assay: IMAP PDE activity assay (Scottish Biomedical); format: biochemical; settings: * Extrapolated value
# Description: as §1, §2
# PDE6AB = molecular target: T5, PDE6AB (Homo sapiens, UniProt P16499+P35913); assay: IMAP PDE activity assay (Scottish Biomedical); format: biochemical; settings: NI, no inhibition noted at concentrations tested (up to 10 µM at Cerep and up to 100 µM at Scottish Biomedical)
# T5 construct: Scottish Biomedical (contract laboratory)
# Description: as §1, §2
# [1] = set-up: method as in PMID 8961086; settings: rats; ref [27]; read-out: plasma Cmax exposure; cited from earlier work
# PDE5 = tested on: PDE5; set-up: method as in PMID 9216839, PMID 17697115, PMID 8961086, PMID 7581878; settings: [12] uses full length PDE5 derived from bovine lung, ref [12], [23], [27], [28], read-out: reported IC50; cited from earlier work
# R6/2 mice [2] = assay: Grip Strength; format: in vivo, mouse; set-up: key to Grip Strength: direction of significant change vs Vehicle-treated R6/2 mice: ▲: significant enhancement compared to Vehicle-treated R6/2 mice (One-way ANOVA, Dunnett’s post-hoc); ▼: significant impairment compared to Vehicle-treated R6/2 mice (One-way ANOVA, Dunnett’s post-hoc)
# Description: Motor function testing including open field and rear climbing tests were commenced at 4 weeks of age and continued at weeks 6, 8 and 12, for grip strength test at age weeks 4 and 12 and for rotarod at age weeks 4, 6 and 8. Compound treatment was started at 4 weeks of age after the baseline behavioral tests.
# Grip strength measurement was performed at age weeks 4 and 12. The mice were tested on Monday afternoons. Mice were taken to the experimental room and, one at a time, were placed on the grip-strength apparatus (San Diego Instruments, San Diego, USA) in such a way that the animal grabs a small mesh grip with its forepaws. The entire apparatus is placed on a table top for testing. Animals are lowered to the platform and then slowly pulled away from the handle by the tail until the animal releases the handle. The equipment automatically measures the strength of the animal’s grip in grams. Five scores were recorded per animal in consecutive sequence. Mice were returned to their home cage after testing.
# All values are presented as mean ± Standard Error of Mean (SEM), and differences are considered to be statistically significant at the p < 0.05 level. Statistical analysis was performed using StatsDirect statistical software. Differences between group means were analyzed by 1-way-ANOVA followed by Dunnett’s test (comparison to the control (=vehicle treated TG mice) group). The acquisition of the Cued two-choice swim test was analyzed using Fisher’s exact test.
# PDE1B = molecular target: T6, PDE1B (Homo sapiens, UniProt Q01064); assay: Cerep diversity panel screen at 10 µM; format: biochemical
# T6 construct: Cerep (contract laboratory)
# Description: (§3) Studies were conducted at Cerep (France)
# PDE2A = molecular target: T7, PDE2A (Homo sapiens, UniProt O00408); assay: Cerep diversity panel screen at 10 µM; format: biochemical
# T7 construct: Cerep (contract laboratory)
# Description: as §3
# PDE1 = tested on: PDE1; set-up: method as in PMID 9216839, PMID 17697115, PMID 8961086, PMID 7581878; settings: ref [12], [23], [27], [28], read-out: reported IC50; cited from earlier work
# PDE9 = tested on: PDE9; set-up: method as in PMID 9216839, PMID 17697115, PMID 10618442, PMID 8961086, PMID 7581878; settings: ref [12], [23], [25], [27], [28], read-out: previously reported potencies; cited from earlier work
# R6/2 mice [3] = assay: Survival study in R6/2 mice; format: in vivo, mouse; settings: for Mean (±SEM) Survival Time / Medial Survival Time: R6/2 mice
# [4] = Age Week 12, 30 mg/kg p.o., BID
# Sequence of PDE11A1 (cAMP) (Q9HCR9 whole entry): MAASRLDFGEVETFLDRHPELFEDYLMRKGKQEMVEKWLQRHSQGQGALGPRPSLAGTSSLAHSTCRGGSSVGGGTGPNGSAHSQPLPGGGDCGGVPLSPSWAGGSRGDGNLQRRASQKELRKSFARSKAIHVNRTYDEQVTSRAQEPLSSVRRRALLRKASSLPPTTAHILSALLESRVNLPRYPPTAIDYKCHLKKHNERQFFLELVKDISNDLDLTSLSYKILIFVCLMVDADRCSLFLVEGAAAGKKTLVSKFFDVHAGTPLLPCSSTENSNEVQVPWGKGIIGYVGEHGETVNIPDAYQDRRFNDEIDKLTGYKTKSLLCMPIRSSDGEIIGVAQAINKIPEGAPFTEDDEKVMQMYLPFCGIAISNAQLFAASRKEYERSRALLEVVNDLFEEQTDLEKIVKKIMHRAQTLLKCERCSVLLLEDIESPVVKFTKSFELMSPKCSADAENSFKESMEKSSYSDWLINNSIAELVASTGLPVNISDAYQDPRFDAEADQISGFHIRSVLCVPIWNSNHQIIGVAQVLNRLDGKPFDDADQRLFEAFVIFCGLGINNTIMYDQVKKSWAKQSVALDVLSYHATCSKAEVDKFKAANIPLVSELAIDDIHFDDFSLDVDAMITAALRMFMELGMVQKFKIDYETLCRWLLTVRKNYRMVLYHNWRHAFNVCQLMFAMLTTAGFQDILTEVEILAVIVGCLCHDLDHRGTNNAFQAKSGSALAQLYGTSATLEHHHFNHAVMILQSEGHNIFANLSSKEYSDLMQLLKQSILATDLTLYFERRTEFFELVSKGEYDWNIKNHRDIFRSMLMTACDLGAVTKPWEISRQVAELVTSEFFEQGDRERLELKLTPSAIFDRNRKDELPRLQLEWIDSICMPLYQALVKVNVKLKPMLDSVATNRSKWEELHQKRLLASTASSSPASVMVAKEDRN
# T1 sequence (P54750 whole entry, species assumed): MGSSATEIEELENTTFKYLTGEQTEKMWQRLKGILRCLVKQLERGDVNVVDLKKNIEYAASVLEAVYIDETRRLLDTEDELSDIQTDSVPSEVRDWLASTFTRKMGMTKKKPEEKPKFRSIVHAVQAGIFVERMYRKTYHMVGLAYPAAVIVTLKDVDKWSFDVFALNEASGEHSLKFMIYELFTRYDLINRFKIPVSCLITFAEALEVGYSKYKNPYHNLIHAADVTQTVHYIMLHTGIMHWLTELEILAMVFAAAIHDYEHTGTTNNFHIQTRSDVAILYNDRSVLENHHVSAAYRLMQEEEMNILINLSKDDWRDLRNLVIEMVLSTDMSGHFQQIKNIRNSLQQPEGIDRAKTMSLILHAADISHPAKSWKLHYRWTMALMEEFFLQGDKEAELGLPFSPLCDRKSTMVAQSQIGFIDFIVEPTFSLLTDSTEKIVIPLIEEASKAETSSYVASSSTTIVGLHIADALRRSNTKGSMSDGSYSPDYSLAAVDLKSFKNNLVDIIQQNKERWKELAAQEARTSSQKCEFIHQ
# T6 sequence (Q01064 whole entry, species assumed): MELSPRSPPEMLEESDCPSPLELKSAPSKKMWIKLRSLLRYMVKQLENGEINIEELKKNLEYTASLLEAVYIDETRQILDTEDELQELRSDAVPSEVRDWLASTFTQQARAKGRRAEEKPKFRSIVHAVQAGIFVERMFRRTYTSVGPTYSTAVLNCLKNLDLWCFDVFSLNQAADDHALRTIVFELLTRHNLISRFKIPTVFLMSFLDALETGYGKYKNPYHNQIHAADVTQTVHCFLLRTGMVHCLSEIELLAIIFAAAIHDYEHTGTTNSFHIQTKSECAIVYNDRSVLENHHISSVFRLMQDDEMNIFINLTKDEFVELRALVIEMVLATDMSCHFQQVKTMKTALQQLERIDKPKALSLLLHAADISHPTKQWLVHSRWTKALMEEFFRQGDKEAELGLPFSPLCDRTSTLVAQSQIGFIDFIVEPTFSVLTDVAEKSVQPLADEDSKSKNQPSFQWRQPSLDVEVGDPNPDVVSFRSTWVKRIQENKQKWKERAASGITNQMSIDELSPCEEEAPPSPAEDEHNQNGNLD
# T7 sequence (O00408 whole entry, species assumed): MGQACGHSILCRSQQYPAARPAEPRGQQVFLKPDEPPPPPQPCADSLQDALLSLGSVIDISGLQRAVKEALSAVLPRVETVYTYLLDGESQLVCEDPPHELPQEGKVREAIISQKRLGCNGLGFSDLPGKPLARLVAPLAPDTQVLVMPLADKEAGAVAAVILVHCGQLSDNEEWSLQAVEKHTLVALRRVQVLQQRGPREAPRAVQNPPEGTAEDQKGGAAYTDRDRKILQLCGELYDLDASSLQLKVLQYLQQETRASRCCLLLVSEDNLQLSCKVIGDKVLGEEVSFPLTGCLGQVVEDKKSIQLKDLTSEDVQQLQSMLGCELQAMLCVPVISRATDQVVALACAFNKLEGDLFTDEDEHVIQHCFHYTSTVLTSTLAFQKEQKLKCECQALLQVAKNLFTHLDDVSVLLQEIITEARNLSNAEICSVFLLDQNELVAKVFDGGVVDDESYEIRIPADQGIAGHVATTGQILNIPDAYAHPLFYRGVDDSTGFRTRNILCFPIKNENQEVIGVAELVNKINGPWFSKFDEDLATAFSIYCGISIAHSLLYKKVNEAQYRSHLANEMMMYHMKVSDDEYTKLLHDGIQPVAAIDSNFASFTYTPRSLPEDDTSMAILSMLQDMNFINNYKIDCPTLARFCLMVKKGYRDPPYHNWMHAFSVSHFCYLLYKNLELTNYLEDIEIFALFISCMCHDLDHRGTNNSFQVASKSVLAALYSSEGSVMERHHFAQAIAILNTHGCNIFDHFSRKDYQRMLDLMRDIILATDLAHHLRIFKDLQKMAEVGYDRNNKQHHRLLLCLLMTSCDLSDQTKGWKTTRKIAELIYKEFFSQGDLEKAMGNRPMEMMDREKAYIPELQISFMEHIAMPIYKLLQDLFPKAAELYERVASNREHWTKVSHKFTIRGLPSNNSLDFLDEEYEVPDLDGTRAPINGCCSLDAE
# T4 sequence (O00408 whole entry, species assumed): as above
# Sequence of PDE10A1 (cAMP) (Q9Y233 267-1055): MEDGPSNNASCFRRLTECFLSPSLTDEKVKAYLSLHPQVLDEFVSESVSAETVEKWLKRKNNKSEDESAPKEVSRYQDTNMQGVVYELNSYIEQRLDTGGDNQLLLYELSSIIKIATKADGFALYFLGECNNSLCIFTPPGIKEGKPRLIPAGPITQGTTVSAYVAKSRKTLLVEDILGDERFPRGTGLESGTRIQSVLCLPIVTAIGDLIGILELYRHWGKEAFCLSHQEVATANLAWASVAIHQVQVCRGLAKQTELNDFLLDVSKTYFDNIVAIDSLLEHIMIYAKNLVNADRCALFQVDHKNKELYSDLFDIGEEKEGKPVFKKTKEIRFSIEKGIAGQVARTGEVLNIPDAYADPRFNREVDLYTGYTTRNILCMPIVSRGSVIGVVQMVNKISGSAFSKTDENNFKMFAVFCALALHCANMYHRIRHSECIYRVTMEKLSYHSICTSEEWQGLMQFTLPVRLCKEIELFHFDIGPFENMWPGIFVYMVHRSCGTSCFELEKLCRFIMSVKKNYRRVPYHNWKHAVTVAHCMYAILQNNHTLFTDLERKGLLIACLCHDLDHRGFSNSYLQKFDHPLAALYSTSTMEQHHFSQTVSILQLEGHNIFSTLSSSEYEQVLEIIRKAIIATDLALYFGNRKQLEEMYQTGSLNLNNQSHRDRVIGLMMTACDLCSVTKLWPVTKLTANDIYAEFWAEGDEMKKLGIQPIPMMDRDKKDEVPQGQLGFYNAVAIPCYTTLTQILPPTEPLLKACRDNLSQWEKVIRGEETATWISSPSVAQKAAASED
# T2 sequence (Q13946 whole entry, species assumed): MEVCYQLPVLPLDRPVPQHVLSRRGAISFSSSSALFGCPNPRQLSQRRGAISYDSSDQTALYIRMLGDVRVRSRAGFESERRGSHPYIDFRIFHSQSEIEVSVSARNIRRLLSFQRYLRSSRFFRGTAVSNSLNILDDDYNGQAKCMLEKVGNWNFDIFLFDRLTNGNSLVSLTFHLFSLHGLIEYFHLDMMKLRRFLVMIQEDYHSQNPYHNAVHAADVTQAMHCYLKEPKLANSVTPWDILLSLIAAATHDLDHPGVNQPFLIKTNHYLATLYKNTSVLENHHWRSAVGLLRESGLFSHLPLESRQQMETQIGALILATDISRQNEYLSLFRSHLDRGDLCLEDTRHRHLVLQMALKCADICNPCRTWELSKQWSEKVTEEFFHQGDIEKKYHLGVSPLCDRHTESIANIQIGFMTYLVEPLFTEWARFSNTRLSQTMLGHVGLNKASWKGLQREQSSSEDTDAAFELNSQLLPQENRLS
# Sequence of PDE9A2 (O76083 whole entry): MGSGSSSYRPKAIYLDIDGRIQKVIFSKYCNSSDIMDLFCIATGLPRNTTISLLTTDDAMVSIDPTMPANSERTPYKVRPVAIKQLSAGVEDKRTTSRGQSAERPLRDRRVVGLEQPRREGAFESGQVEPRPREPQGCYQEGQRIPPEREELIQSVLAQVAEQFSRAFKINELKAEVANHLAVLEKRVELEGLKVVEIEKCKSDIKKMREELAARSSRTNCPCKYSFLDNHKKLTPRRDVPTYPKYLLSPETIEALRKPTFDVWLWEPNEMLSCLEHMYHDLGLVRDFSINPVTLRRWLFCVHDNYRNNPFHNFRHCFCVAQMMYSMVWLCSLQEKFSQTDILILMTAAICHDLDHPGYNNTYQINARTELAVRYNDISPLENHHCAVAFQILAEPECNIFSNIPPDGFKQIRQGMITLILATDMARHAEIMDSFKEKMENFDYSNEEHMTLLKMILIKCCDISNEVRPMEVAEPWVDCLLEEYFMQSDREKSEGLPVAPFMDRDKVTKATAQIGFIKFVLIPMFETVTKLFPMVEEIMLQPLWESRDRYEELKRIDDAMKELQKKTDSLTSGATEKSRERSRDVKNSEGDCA
compound,measurement,setting,value
"CN1C(=O)c2nc(Cc3ccc(C(F)(F)F)cc3)[nH]c2N2C1=N[C@H]1CCC[C@H]12 [SCH-51866, (+)-cis-5,6a,7,8,9,9a-hexahydro-2-[4-[trifluro-methyl]phenylmethyl]-5-methyl-cylopent[4,5]imidazo [2,1-b]purin-4(3H)one]",IC50,PDE4 Cat,> 100 µM
same,IC50,PDE1A3 (cAMP),0.07 µM
same,IC50,PDE7A1,> 100 µM
same,IC50,PDE8A1,> 100 µM
same,IC50,PDE2A3,1.32 µM
same,IC50,PDE10A1 (cAMP),16 µM
same,IC50,PDE11A1 (cAMP),21.9 µM
same,IC50,PDE9A2,51.3 µM
same,IC50,PDE3 Cat,17.3 µM
same,IC50,PDE6AB,> 100 µM
same,Cmax,[1],2.37 to 3.8 µM
same,IC50,PDE5,0.06 µM
same,"Grip strength, effect in words","R6/2 mice [2]; 30 mg/kg, 12 weeks of age, vs R6/2 vehicle group",improvement in grip strength; also recorded: positive effect in improving grip strength; also recorded: significantly improved over the R6/2 vehicle group
same,Grip Strength: p vs Vehicle-treated R6/2 mice,"R6/2 mice [2]; Age Week 4, 10 mg/kg p.o., BID, ANOVA",ANOVA: p=0.612
same,Grip Strength: p vs Vehicle-treated R6/2 mice,"R6/2 mice [2]; Age Week 4, 30 mg/kg p.o., BID, ANOVA",ANOVA: p=0.612
same,Grip Strength: p vs Vehicle-treated R6/2 mice,"R6/2 mice [2]; Age Week 12, 10 mg/kg p.o., BID",p=0.860
same,Grip Strength: direction of significant change vs Vehicle-treated R6/2 mice,R6/2 mice [2]; [4],▲
same,Grip Strength: p vs Vehicle-treated R6/2 mice,R6/2 mice [2]; [4],0.006
same,inhibition at 10 µM,PDE1B,100%
same,inhibition at 10 µM,PDE2A,92%
same,IC50,PDE1,0.07 µM
same,IC50,PDE9,44 µM
same,"Generalized Wilcoxon (Peto-Prentice) Test, Chi-square for equiv. of death rates p","R6/2 mice [3]; 10 mg/kg (p.o., BID) column",Chi-square for equiv. of death rates p=0.543
same,"Log-rank (Peto) Test, Chi-square for equiv. of death rates p","R6/2 mice [3]; 10 mg/kg (p.o., BID) column",0.555
same,Mean (±SEM) Survival Time,"R6/2 mice [3]; 10 mg/kg (p.o., BID)",115 (±7) days
same,Medial Survival Time,"R6/2 mice [3]; 10 mg/kg (p.o., BID)",110 days
same,"Generalized Wilcoxon (Peto-Prentice) Test, Chi-square for equiv. of death rates p","R6/2 mice [3]; 30 mg/kg (p.o., BID) column",Chi-square for equiv. of death rates p=0.543
same,"Log-rank (Peto) Test, Chi-square for equiv. of death rates p","R6/2 mice [3]; 30 mg/kg (p.o., BID) column",0.555
same,Mean (±SEM) Survival Time,"R6/2 mice [3]; 30 mg/kg (p.o., BID)",122 (±5) days
same,Medial Survival Time,"R6/2 mice [3]; 30 mg/kg (p.o., BID)",121 days
same,"Survival, effect in words",R6/2 mice [3]; vs R6/2 vehicle-treated animals,no survival benefit
